# Experimental data reported in paper PMC10374582, “A BAHD-type acyltransferase concludes the biosynthetic pathway of non-bitter glycoalkaloids in ripe tomato fruit” (Nature Communications, 2023).
# Columns and labels:
# SlGAME40 = molecular target: T1, SlGAME40 (Solanum lycopersicum, UniProt P10967); assay: LC-MS product detection, sequential one-tube assay; type: biochemical; conditions: acetoxytomatine formed in situ by GAME31 and GAME36; α-ketoglutarate, ascorbate, Fe2+; pH 7.5, 30 °C
# T1 construct: gene ACO3; purified recombinant from E. coli
# SlGAME36 = molecular target: T2, SlGAME36 (Solanum lycopersicum, UniProt A0A3Q7HQH1); assay: LC-MS steady-state kinetics; type: biochemical; conditions: pH 7.5, 30 °C
# T2 construct: gene LOC101247356; pET28/pET28b, E. coli BL21 (DE3), Ni-NTA purified His-tagged protein
# Excerpt: (§1) LC-MS steady-state kinetics on SlGAME36 | higher catalytic efficiency with hydroxytomatine (native substrate from tomato | hydroxysolamargine (SGA substrate from eggplant | preferred specificity toward acetyl CoA over butyryl CoA
# [1] = tested on: C[C@@H]1CNC2(O[C@H]3C[C@H]4[C@@H]5CC[C@H]6C[C@@H](O[C@@H]7O[C@H](CO)[C@H](O[C@@H]8O[C@H](CO)[C@@H](O)[C@H](O[C@@H]9OC[C@@H](O)[C@H](O)[C@H]9O)[C@H]8O[C@@H]8O[C@H](CO)[C@@H](O)[C@H](O)[C@H]8O)[C@H](O)[C@H]7O)CC[C@]6(C)[C@H]5CC[C@]4(C)[C@H]3[C@@H]2C)C(O)C1; assay: LC-MS steady-state kinetics; type: biochemical, Solanum lycopersicum; conditions: 500 µM acetyl CoA, pH 7.5, 30 °C
# Excerpt: as §1
compound,measurement,setting,value
CC(=O)OC1C[C@H](C)CNC12O[C@H]1C[C@H]3[C@@H]4CC[C@H]5C[C@@H](O[C@@H]6O[C@H](CO)[C@H](O[C@@H]7O[C@H](CO)[C@@H](O)[C@H](O[C@@H]8OC[C@@H](O)[C@H](O)[C@H]8O)[C@H]7O[C@@H]7O[C@H](CO)[C@@H](O)[C@H](O)[C@H]7O)[C@H](O)[C@H]6O)CC[C@]5(C)[C@H]4CC[C@]3(C)[C@H]1[C@@H]2C (stereo partly drawn) [acetoxytomatine],"LC-MS product detection, sequential one-tube assay",SlGAME40,Sequential assays produced explicitly the expected pathway intermediates
CC(=O)SCCNC(=O)CCNC(=O)[C@H](O)C(C)(C)COP(=O)(O)OP(=O)(O)OC[C@H]1O[C@@H](n2cnc3c(N)ncnc32)[C@H](O)[C@@H]1OP(=O)(O)O [acetyl CoA],Km,SlGAME36; 100 µM hydroxytomatine,24.2 µM
CCCC(=O)SCCNC(=O)CCNC(=O)[C@H](O)C(C)(C)COP(=O)(O)OP(=O)(O)OC[C@H]1O[C@@H](n2cnc3c(N)ncnc32)[C@H](O)[C@@H]1OP(=O)(O)O [butyryl CoA],Km,SlGAME36; 100 µM hydroxytomatine,60.4 µM
SlGAME36 (Solanum lycopersicum),Km,[1],14.43 µM
same,kcat,[1],60.25 s⁻¹
hydroxysolamargine,Km,SlGAME36; 500 µM acetyl CoA,7.89 µM
